{"source": "ChEMBL document CHEMBL5046227", "about": "“Design, synthesis and bioactivity evaluation of novel evodiamine derivatives with excellent potency against gastric cancer” (Eur J Med Chem, 2022)", "key": {"[1]": {"test": "Acute toxicity in Kunming mouse assessed as death at 1000 mg/kg, ip measured for 14 days", "assay_type": "organism-based", "conditions": "in vivo, 336 h, time 14 day"}, "[2]": {"tested_on": "SGC-7901", "test": "Induction of cell cycle arrest in human SGC-7901 cells assessed as accumulation at G2/M phase at 0.1 to 0.9 uM after 24 hrs by propidium iodide staining based flow cytometry", "assay_type": "functional", "conditions": "dose 0.1-0.9 µM"}, "[3]": {"target": "T1, DNA topoisomerase 1 (Homo sapiens) (UniProt P11387)", "T1 sequence (whole entry)": "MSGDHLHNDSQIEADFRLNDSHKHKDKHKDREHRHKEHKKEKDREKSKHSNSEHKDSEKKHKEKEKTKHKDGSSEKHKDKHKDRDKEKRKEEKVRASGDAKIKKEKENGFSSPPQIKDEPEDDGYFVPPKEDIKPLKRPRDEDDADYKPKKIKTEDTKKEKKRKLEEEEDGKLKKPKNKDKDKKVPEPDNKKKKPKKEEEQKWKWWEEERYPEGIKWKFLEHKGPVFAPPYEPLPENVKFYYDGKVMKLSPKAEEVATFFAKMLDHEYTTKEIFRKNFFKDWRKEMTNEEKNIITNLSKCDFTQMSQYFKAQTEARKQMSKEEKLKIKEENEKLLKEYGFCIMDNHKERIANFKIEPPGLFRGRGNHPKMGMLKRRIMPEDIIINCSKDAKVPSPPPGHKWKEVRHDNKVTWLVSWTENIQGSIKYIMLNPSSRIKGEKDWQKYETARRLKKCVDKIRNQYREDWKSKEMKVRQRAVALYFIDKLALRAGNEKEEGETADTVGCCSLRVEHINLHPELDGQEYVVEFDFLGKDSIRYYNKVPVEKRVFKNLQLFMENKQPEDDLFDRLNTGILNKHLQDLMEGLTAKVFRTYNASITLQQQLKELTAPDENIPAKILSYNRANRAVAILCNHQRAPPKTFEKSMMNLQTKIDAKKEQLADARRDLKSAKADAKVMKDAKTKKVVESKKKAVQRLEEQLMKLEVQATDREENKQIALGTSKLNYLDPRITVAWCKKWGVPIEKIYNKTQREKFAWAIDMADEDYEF", "test": "Inhibition of topoisomerase 1 (unknown origin) assessed as relaxation of supercoiled plasmid pBR322 DNA at 50 uM incubated for 15 mins by ethidium bromide staining based agarose gel electrophoresis method"}, "[4]": {"tested_on": "SGC-7901", "test": "Induction of apoptosis in human SGC-7901 cells assessed as chromatin condensation incubated for 24 hrs by Giemsa staining method", "assay_type": "functional, cell-based"}, "[5]": {"tested_on": "SGC-7901", "test": "Induction of apoptosis in human SGC-7901 cells assessed as viable cells at 0.1 uM after 24 hrs by Annexin V-FITC/PI staining based flow cytometry method (reference value: 99.95%)", "assay_type": "functional", "conditions": "read-out: Activity"}, "[6]": {"tested_on": "SGC-7901", "test": "Induction of apoptosis in human SGC-7901 cells assessed as necrotic cells at 0.1 uM after 24 hrs by Annexin V-FITC/PI staining based flow cytometry method (reference value: 0.01%)", "assay_type": "functional"}, "[7]": {"tested_on": "MGC-803", "test": "Antimigratory activity against human MGC-803 cells assessed as inhibition on cell migration at 0.1 to 0.9 uM measured after 24 hrs by scratch wound-healing assay", "assay_type": "functional, cell-based", "conditions": "dose 0.1-0.9 µM"}}, "note": "Activity calls are given as the source filed them. The calls are words filed in the database; no cut-off is given here."}
{"smiles": "Cc1ccc2c(c1)C(=O)N1CCc3c([nH]c4ccc(C)cc34)C1N2c1cccc(F)c1", "note": "(configuration not stated)", "values": [{"measurement": "Activity", "setting": "[1]", "value": "Non-Toxic"}, {"measurement": "Activity", "setting": "[2]", "value": 22.85, "unit": "%"}, {"measurement": "inhibition", "setting": "[3]", "value": 80.7, "unit": "%"}, {"measurement": "Activity", "setting": "[4]", "value": "Active"}, {"measurement": "viability at 0.1 µM", "setting": "[5]", "value": 93.4, "unit": "%"}, {"measurement": "Activity", "setting": "[6]", "value": 0.07, "unit": "%"}, {"measurement": "Activity", "setting": "[7]", "value": "Active"}]}
